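A five-concentration, 48-hour dose response in 96-well plates underlies each endpoint, interpolated linearly between surrounding concentrations. GI50 marks 50% less growth.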 The source made the active and inactive calls. Rule as the data show it: active = GI50 up to about 1.1 µM and inactive = higher.
Key:
Experiment in all cases: NCI anticancer screen, dose series, 48 h
SF-295 = tested on: SF-295
RPMI-8226 = tested on: RPMI-8226
OVCAR-5 = tested on: OVCAR-5
SW-620 = tested on: SW-620
NCI-H460 = tested on: NCI-H460
NCI-H226 = tested on: NCI-H226
TK-10 = tested on: TK-10
HCC 2998 = tested on: HCC 2998
M14 = tested on: M14
HOP-92 = tested on: HOP-92
RXF 393 = tested on: RXF 393
SNB-19 = tested on: SNB-19
EKVX = tested on: EKVX
Malme-3M = tested on: Malme-3M
SF-539 = tested on: SF-539
K562 = tested on: K562
NCI-H522 = tested on: NCI-H522
HL-60 = tested on: HL-60
SR = tested on: SR

Structure (SMILES)	GI50 (SF-295)	GI50 (RPMI-8226)	GI50 (OVCAR-5)	GI50 (SW-620)	GI50 (NCI-H460)	GI50 (NCI-H226)	GI50 (TK-10)	GI50 (HCC 2998)	GI50 (M14)	GI50 (HOP-92)	GI50 (RXF 393)	GI50 (SNB-19)	GI50 (EKVX)	GI50 (Malme-3M)	GI50 (SF-539)	GI50 (K562)	GI50 (NCI-H522)	GI50 (HL-60)	GI50 (SR)
NNC(=O)N/N=C1\C(=O)N(c2nccs2)C(=O)C(=O)C1c1nc2ccccc2s1 (centres undefined)	> 100 µM (inactive)	> 100 µM (inactive)	> 100 µM (inactive)	> 100 µM (inactive)	> 100 µM (inactive)	> 100 µM (inactive)	> 100 µM (inactive)	> 100 µM (inactive)	> 100 µM (inactive)	> 100 µM (inactive)	> 100 µM (inactive)	> 100 µM (inactive)	> 100 µM (inactive)	> 100 µM (inactive)	> 100 µM (inactive)	–	–	–	–
Cn1c(=O)nc2n(-c3cc(Cl)ccc3Cl)c3ccccc3nc-2c1=O	7.62 µM (inactive)	4.71 µM (inactive)	13 µM (inactive)	2.18 µM (inactive)	2.53 µM (inactive)	7.69 µM (inactive)	12.3 µM (inactive)	2.68 µM (inactive)	3.63 µM (inactive)	–	14.8 µM (inactive)	4.67 µM (inactive)	3.88 µM (inactive)	3.78 µM (inactive)	5.92 µM (inactive)	6.4 µM (inactive)	5.31 µM (inactive)	–	–
Cc1ccc2c(CC(=O)O)cc(=O)oc2c1	> 100 µM (inactive)	> 100 µM (inactive)	> 100 µM (inactive)	> 100 µM (inactive)	> 100 µM (inactive)	> 100 µM (inactive)	> 100 µM (inactive)	> 100 µM (inactive)	> 100 µM (inactive)	> 100 µM (inactive)	3.72 µM (inactive)	> 100 µM (inactive)	> 100 µM (inactive)	> 100 µM (inactive)	> 100 µM (inactive)	> 100 µM (inactive)	> 100 µM (inactive)	> 100 µM (inactive)	–
CC1CCC[P+](Cc2ccccc2)(c2ccccc2)CC1 (centres undefined)	–	7.23 µM (inactive)	> 100 µM (inactive)	94.4 µM (inactive)	79.6 µM (inactive)	–	> 100 µM (inactive)	29.1 µM (inactive)	35.9 µM (inactive)	–	23.1 µM (inactive)	46.5 µM (inactive)	> 100 µM (inactive)	4.99 µM (inactive)	69.5 µM (inactive)	31.3 µM (inactive)	–	14.8 µM (inactive)	–
Cc1ccc(C)c(NC2=NC(=O)C(CC(=O)Nc3ccc(Cl)cc3Cl)S2)c1 (centres undefined)	> 100 µM (inactive)	> 100 µM (inactive)	> 100 µM (inactive)	> 100 µM (inactive)	> 100 µM (inactive)	28.1 µM (inactive)	> 100 µM (inactive)	46 µM (inactive)	> 100 µM (inactive)	–	31.2 µM (inactive)	48.5 µM (inactive)	> 100 µM (inactive)	70.5 µM (inactive)	41.4 µM (inactive)	80.2 µM (inactive)	24 µM (inactive)	> 100 µM (inactive)	–
Cc1cc(N(CCC#N)CCC#N)ccc1/C=C1N=C(/C=C\c2ccccc2)N(c2ccc(C(=O)O)cc2)C\1=O	> 100 µM (inactive)	> 100 µM (inactive)	> 100 µM (inactive)	> 100 µM (inactive)	> 100 µM (inactive)	> 100 µM (inactive)	> 100 µM (inactive)	–	> 100 µM (inactive)	> 100 µM (inactive)	–	> 100 µM (inactive)	–	> 100 µM (inactive)	> 100 µM (inactive)	> 100 µM (inactive)	> 100 µM (inactive)	> 100 µM (inactive)	> 100 µM (inactive)
CC(=O)Oc1c2oc3cc(O)c(O)cc3c2c(OC(C)=O)c2oc3cc(O)c(O)cc3c12 [POLYOZELLIN]	16.7 µM (inactive)	> 10 µM (inactive)	25.5 µM (inactive)	23.2 µM (inactive)	18.6 µM (inactive)	19.2 µM (inactive)	18.9 µM (inactive)	16.9 µM (inactive)	23.4 µM (inactive)	–	18.1 µM (inactive)	23.7 µM (inactive)	20.6 µM (inactive)	17.1 µM (inactive)	23 µM (inactive)	19.1 µM (inactive)	10.3 µM (inactive)	3.08 µM (inactive)	4.4 µM (inactive)
CCOC(=O)c1nc2ccc(Cl)cc2c2c1Cc1ccccc1-2	> 100 µM (inactive)	> 100 µM (inactive)	> 100 µM (inactive)	> 100 µM (inactive)	–	> 100 µM (inactive)	> 100 µM (inactive)	> 100 µM (inactive)	> 100 µM (inactive)	–	19.7 µM (inactive)	> 100 µM (inactive)	> 100 µM (inactive)	–	> 100 µM (inactive)	> 100 µM (inactive)	90.8 µM (inactive)	–	> 100 µM (inactive)
CCC1C2C=CC(CC2)N1S(=O)(=O)c1ccc(C)cc1 (centres undefined)	29.2 µM (inactive)	12.9 µM (inactive)	22.3 µM (inactive)	16.8 µM (inactive)	23 µM (inactive)	0.283 µM (active)	–	–	31 µM (inactive)	–	–	24.4 µM (inactive)	27.8 µM (inactive)	21.4 µM (inactive)	20.7 µM (inactive)	18.1 µM (inactive)	20.8 µM (inactive)	4.22 µM (inactive)	22.4 µM (inactive)
Cc1ccc(/C=C/C(=O)C(C)(C)CN2CCCCC2)cc1	7.8 µM (inactive)	3.49 µM (inactive)	15.2 µM (inactive)	2.72 µM (inactive)	8.28 µM (inactive)	13.2 µM (inactive)	11.6 µM (inactive)	15 µM (inactive)	7.31 µM (inactive)	–	5.11 µM (inactive)	2.57 µM (inactive)	3.18 µM (inactive)	13.3 µM (inactive)	4.6 µM (inactive)	2.27 µM (inactive)	3.33 µM (inactive)	–	–
CC(/C=C/c1ccccc1)=N\N=C(C)\C=C\c1ccccc1	> 100 µM (inactive)	> 100 µM (inactive)	> 100 µM (inactive)	> 100 µM (inactive)	> 100 µM (inactive)	> 100 µM (inactive)	> 100 µM (inactive)	> 100 µM (inactive)	> 100 µM (inactive)	–	–	–	> 100 µM (inactive)	> 100 µM (inactive)	–	> 100 µM (inactive)	> 100 µM (inactive)	> 100 µM (inactive)	> 100 µM (inactive)
CCOCN1COCN(C)C1=O	> 100 µM (inactive)	> 100 µM (inactive)	> 100 µM (inactive)	> 100 µM (inactive)	> 100 µM (inactive)	> 100 µM (inactive)	> 100 µM (inactive)	> 100 µM (inactive)	> 100 µM (inactive)	> 100 µM (inactive)	–	> 100 µM (inactive)	> 100 µM (inactive)	> 100 µM (inactive)	> 100 µM (inactive)	> 100 µM (inactive)	–	–	–
COC(=O)/C(=N\NC(=O)c1ccccc1O)C(C#N)c1ccccc1 (centres undefined)	22.1 µM (inactive)	20.2 µM (inactive)	20.9 µM (inactive)	23.5 µM (inactive)	18.9 µM (inactive)	12.7 µM (inactive)	> 46.7 µM (inactive)	> 50 µM (inactive)	31.4 µM (inactive)	19.9 µM (inactive)	16.5 µM (inactive)	23.2 µM (inactive)	18.4 µM (inactive)	21.4 µM (inactive)	14.8 µM (inactive)	16.4 µM (inactive)	17.2 µM (inactive)	16.3 µM (inactive)	–
Cc1c(Cl)cccc1NC(=O)C(=O)C(C(=O)c1ccccc1-c1ccccc1)C1OC(=O)c2ccccc21 (centres undefined)	19.1 µM (inactive)	13.8 µM (inactive)	22.5 µM (inactive)	21.3 µM (inactive)	25.5 µM (inactive)	3.94 µM (inactive)	28.6 µM (inactive)	17.1 µM (inactive)	17 µM (inactive)	15.2 µM (inactive)	12.6 µM (inactive)	–	26.8 µM (inactive)	12.7 µM (inactive)	14.7 µM (inactive)	27.9 µM (inactive)	12.5 µM (inactive)	16.8 µM (inactive)	–
COc1ccc(/C=C/c2cc(OC)c(OC)c(OC)c2)cc1	2.73 µM (inactive)	1.09 µM (active)	1.85 µM (inactive)	5.77 µM (inactive)	3.9 µM (inactive)	5.61 µM (inactive)	43.7 µM (inactive)	3.7 µM (inactive)	42 µM (inactive)	90.8 µM (inactive)	1.48 µM (inactive)	13.6 µM (inactive)	24.2 µM (inactive)	3.27 µM (inactive)	4.29 µM (inactive)	3.2 µM (inactive)	2.85 µM (inactive)	2.75 µM (inactive)	–
COc1cc(OC)c(OC)cc1/C=N/NC(=O)N/N=C/c1cc(OC)c(OC)cc1OC	> 100 µM (inactive)	> 100 µM (inactive)	> 100 µM (inactive)	> 100 µM (inactive)	> 100 µM (inactive)	> 100 µM (inactive)	> 100 µM (inactive)	–	> 100 µM (inactive)	49.9 µM (inactive)	–	> 100 µM (inactive)	> 100 µM (inactive)	> 100 µM (inactive)	33.6 µM (inactive)	> 100 µM (inactive)	17.5 µM (inactive)	–	–
CCCN(CCCC(NC(C)=O)C(=O)NCc1ccccc1)C(=O)N(C)N=O (centres undefined)	> 100 µM (inactive)	> 100 µM (inactive)	> 100 µM (inactive)	> 100 µM (inactive)	> 100 µM (inactive)	> 100 µM (inactive)	> 100 µM (inactive)	> 100 µM (inactive)	> 100 µM (inactive)	> 100 µM (inactive)	> 100 µM (inactive)	–	> 100 µM (inactive)	> 100 µM (inactive)	> 100 µM (inactive)	> 100 µM (inactive)	> 100 µM (inactive)	–	–
